Reference: patent US8053424B2, “Composition and method of treating hearing loss” (The Regents of the University of Michigan, priority 2006, dated 2011)

Tested on: guinea pigs
Assay: Threshold shift by auditory brainstem response (ABR) testing after 120 dB SPL octave band noise
Format: in vivo, guinea pigs (NIH outbred strain)
Details: FIG. 1-3 comparison between treatments
Procedure: In guinea pig studies, hearing loss and the efficacy of the composition of the subject invention for treating hearing loss is measured as an average difference in threshold shift from baseline threshold sensitivity at 4, 8, and 16 kHz, as compared to an untreated control, after exposure to 120 decibel SPL Octave Band Noise centered at 4 kHz for five hours.
To obtain those results, the composition is typically injected each day, twice a day, for three days prior to exposure to the noise and injected again each day for at least five days, typically up to ten days, subsequent to the exposure to the noise. The threshold shift is measured 10 days after exposure to the noise using auditory brainstem response (ABR) testing.
In order to determine efficacy of the composition of the present invention in treating hearing loss, baseline threshold sensitivity of the guinea pigs is measured binaurally using auditory brainstem response testing at 4, 8, and 16 kHz.
For Example 1, the guinea pigs are first treated each day, twice a day, for three days prior to exposure to 120-dB SPL Octave Band Noise centered at 4 kHz for 5 hours. The noise causes trauma to middle or inner ears of the guinea pigs and is sufficient to cause permanent threshold shift, i.e., permanent hearing loss. […] Ten days after the noise exposure, auditory sensitivity is measured using ABR. […]

Row | Compound | effect in minimizing threshold shift (additive effect), in words
1 | Cc1c(C)c2c(c(C)c1O)CCC(C)(C(=O)O)O2 (centres unmarked) [Trolox®] | do not exhibit the same additive effect
2 | O=C([O-])c1ccccc1O.[Na+] [salicylate, sodium salicylate] | do not exhibit the same additive effect
